Measurements from patent publication US8927717B1, “Thiochromeno[2,3-c]quinolin-12-one derivatives, preparation method and application thereof” (National Defense Medical Center, priority 2014, dated 2015).

Assays:
[1] = system: HCC-2998; format: cell-based; conditions: HCC-2998
[2] = system: UACC-257; format: cell-based; conditions: UACC-257
[3] = system: SK-MEL-2; format: cell-based; conditions: SK-Mel-2, five dose
[4] = system: HOP-92; format: cell-based; conditions: HOP-92, five dose
[5] = system: ACHN; format: cell-based; conditions: ACHN
[6] = system: A549/ATCC; format: cell-based; conditions: A549/ATCC
[7] = system: MOLT-4; format: cell-based; conditions: MOLT-4
[8] = system: OVCAR-3; format: cell-based; conditions: OVCAR-3; 10^−5 molar
[9] = system: MALME-3M; format: cell-based; conditions: MALME-3M
[10] = target: T1, TOP I (Topoisomerase I) (Homo sapiens, UniProt P11387); assay: TOP I mediated supercoiled DNA relaxation assay; format: biochemical; conditions: five different concentrations; TopoGEN TG2005H, TG-2000H-1
T1 construct: purchased TopoGEN TG2005H
T1 sequence (P11387 1-765): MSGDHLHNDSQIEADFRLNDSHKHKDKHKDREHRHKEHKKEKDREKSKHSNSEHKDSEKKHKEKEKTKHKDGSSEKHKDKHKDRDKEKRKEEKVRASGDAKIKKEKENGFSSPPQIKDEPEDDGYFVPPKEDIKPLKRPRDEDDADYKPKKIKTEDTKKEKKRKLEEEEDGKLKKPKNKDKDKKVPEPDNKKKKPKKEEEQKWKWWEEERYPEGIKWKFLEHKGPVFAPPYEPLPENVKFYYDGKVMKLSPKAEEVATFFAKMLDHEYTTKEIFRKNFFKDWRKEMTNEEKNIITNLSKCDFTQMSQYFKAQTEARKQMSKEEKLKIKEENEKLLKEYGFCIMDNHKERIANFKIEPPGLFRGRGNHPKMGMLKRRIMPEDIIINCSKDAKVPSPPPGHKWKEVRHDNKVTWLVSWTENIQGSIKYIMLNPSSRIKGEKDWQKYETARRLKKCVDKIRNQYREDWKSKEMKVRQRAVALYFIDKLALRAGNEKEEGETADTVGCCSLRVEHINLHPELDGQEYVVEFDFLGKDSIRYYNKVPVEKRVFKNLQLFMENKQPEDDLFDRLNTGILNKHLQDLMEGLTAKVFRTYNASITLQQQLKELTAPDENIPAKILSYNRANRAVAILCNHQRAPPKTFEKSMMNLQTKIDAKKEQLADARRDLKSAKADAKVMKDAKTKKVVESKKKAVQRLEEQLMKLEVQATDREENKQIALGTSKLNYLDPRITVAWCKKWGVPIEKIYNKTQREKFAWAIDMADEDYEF

[11] = system: 786-0; format: cell-based; conditions: 786-0
[12] = system: NCI-H23; format: cell-based; conditions: NCI-H23
[13] = system: MDA-MB-486; format: cell-based; conditions: MDA-MB-486
[14] = system: MDA-MB-435; format: cell-based; conditions: MDA-MB-435
[15] = system: UACC-62; format: cell-based; conditions: UACC-62
[16] = system: IGROV1; format: cell-based; conditions: IGROV1
[17] = system: CAKI-1; format: cell-based; conditions: CAKI-1
[18] = system: SF-539; format: cell-based; conditions: SF-539
[19] = system: SF-268; format: cell-based; conditions: SF-268
[20] = system: OVCAR-4; format: cell-based; conditions: OVCAR-4
[21] = system: UO-31; format: cell-based; conditions: UO-31
[22] = target: T1, TOP I (Topoisomerase I); assay: TOP I mediated supercoiled DNA relaxation assay; format: biochemical; conditions: primary assay at 25 and/or 50 μM
Description: According to the cell cytotoxicity, compounds 5, 7, 8, 16, 19, N2, N7, N8, N9, N14-N19, and N25 were also selected for primary TOP I and II activities assays at 25 and/or 50 μM (FIG. 2-4).

[23] = Homo sapiens, five dose, read-out: LC50 (the source's name)

For `O=c1c2cc(Cl)ccc2sc2c(NCc3ccccc3)nc3ccccc3c12` [Compound N25, 6-(Benzylamino)-10-chloro-12H-thiochromeno[2,3-c]quinolin-12-one], the Growth percent ([1]; 10^−5 molar) was 95.77%, the TGI ([1]; five dose) was >100 µM and the GI50 ([1]; Homo sapiens, five dose) was > 100 µM. For the same molecule, the LC50 ([1]; Homo sapiens, five dose) was > 100 µM, the GI50 ([2]; Homo sapiens, five dose) was > 100 µM and the CC50 [2, 23] was > 100 µM. The Growth percent ([2]; 10^−5 molar) was 83.24%, the TGI ([2]; five dose) was >100 µM and the GI50 ([3]; Homo sapiens) was 10.6 µM. The LC50 ([3]; Homo sapiens) was 96.5 µM, the TGI [3] was 31.90 µM and the TGI [4] was 7.53 µM. It also gave a GI50 ([4]; Homo sapiens) of 1.75 µM, an LC50 ([4]; Homo sapiens) of 53.6 µM and a Growth percent ([5]; 10^−5 molar) of 51.82%. The TGI ([5]; five dose) was >100 µM, the GI50 ([5]; Homo sapiens, five dose) was 4.02 µM and the CC50 [5, 23] was > 100 µM. The Growth percent ([6]; 10^−5 molar) was 68.33%, the TGI ([6]; five dose) was >100 µM and the GI50 ([6]; Homo sapiens, five dose) was 14.4 µM. The LC50 ([6]; Homo sapiens, five dose) was > 100 µM, the GI50 ([7]; Homo sapiens, five dose) was > 100 µM and the CC50 [7, 23] was > 100 µM. The Growth percent ([7]; 10^−5 molar) was 92.42%, the TGI ([7]; five dose) was >100 µM and the Growth percent [8] was 76.59%. The GI50 ([9]; Homo sapiens, five dose) was > 100 µM, the LC50 ([9]; Homo sapiens, five dose) was > 100 µM and the Growth percent ([9]; 10^−5 molar) was 77.59%. The TGI ([9]; five dose) was >100 µM, the IC50 [10] was ~25 µM and the Growth percent ([11]; 10^−5 molar) was 72.48%. The TGI ([11]; five dose) was 48.70 µM, the GI50 ([11]; Homo sapiens, five dose) was 9.55 µM and the CC50 [11, 23] was > 100 µM. The GI50 ([12]; Homo sapiens, five dose) was 15.2 µM, the LC50 (lethal concentration 50%) ([12]; Homo sapiens, five dose) was > 100 µM and the Growth percent ([12]; 10^−5 molar) was 74.37%. For the same molecule, the TGI ([12]; five dose) was >100 µM, the GI50 ([13]; 60 cell, five dose) was 0.03 µM and the CC50 ([13]; 60 cell, five dose, read-out: LC50 (the source's name)) was 63.1 µM. The Growth percent ([13]; 10^−5 molar) was −9.83%, the TGI ([13]; five dose) was 0.66 µM and the GI50 ([14]; Homo sapiens, five dose) was > 100 µM. For the same molecule, the CC50 [14, 23] was > 100 µM, the Growth percent ([14]; 10^−5 molar) was 89.58% and the TGI ([14]; five dose) was >100 µM. For the same molecule, the GI50 ([15]; Homo sapiens, five dose) was 16.9 µM, the CC50 [15, 23] was > 100 µM and the Growth percent ([15]; 10^−5 molar) was 89.20%. For the same molecule, the TGI ([15]; five dose) was >100 µM, the GI50 ([16]; Homo sapiens, IGROV-1, five dose) was 4.64 µM and the CC50 ([16]; Homo sapiens, IGROV-1, five dose, read-out: LC50 (the source's name)) was > 100 µM. The Growth percent ([16]; 10^−5 molar) was 53.42%, the TGI ([16]; five dose) was >100 µM and the Growth percent ([17]; 10^−5 molar) was 80.38%. The TGI ([17]; five dose) was >100 µM, the GI50 ([17]; Homo sapiens, five dose) was 6.07 µM and the CC50 [17, 23] was > 100 µM. For the same molecule, the GI50 ([18]; Homo sapiens, five dose) was 4.49 µM, the LC50 ([18]; Homo sapiens, five dose) was > 100 µM and the Growth percent ([18]; 10^−5 molar) was 80.59%. For the same molecule, the TGI ([18]; five dose) was 46.40 µM, the GI50 ([19]; Homo sapiens, five dose) was 13.8 µM and the CC50 [19, 23] was > 100 µM. The Growth percent ([19]; 10^−5 molar) was 73.68%, the TGI ([19]; five dose) was >100 µM and the GI50 ([20]; Homo sapiens, five dose) was 15 µM. It also gave a Growth percent ([20]; 10^−5 molar) of 27.24%, a TGI ([20]; five dose) of 3.74 µM and a GI50 ([21]; Homo sapiens, five dose) of 57.8 µM. The CC50 [21, 23] was > 100 µM, the Growth percent ([21]; 10^−5 molar) was 65.31% and the TGI ([21]; five dose) was >100 µM. For the same molecule, the “inhibitory effect in TOP I activity assay compared with CPT” value [22] was “more potent inhibitory effects than CPT”.
